Test results: patent US20260207576A1 (priority 2024, published 2026)

Biological target: Stx2A1 (Escherichia phage 933W, UniProt P09385)
Format: biochemical, E. coli (STEC)
Conditions: read-out: IC50 against Stx2A1

Chain of Stx2A1 (P09385 23-272 limits assumed): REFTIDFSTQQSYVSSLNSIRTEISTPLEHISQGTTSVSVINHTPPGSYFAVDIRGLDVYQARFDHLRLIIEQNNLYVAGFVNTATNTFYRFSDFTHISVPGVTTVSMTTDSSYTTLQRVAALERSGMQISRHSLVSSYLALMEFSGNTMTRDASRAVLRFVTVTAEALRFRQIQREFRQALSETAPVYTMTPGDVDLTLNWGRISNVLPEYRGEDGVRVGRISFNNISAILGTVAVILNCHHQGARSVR

CC1(C)Cc2cc(C(=O)O)sc2-c2ccccc21 [RU-NT-206, 5,5-Dimethyl-4,5-dihydronaphtho[1,2-b]thiophene-2-carboxylic acid]
IC50: 83 ± 30 µM
